This note sets out measurements from patent publication US12433843B2, “Biomolecular composites comprising modified cell ghosts” (National University of Singapore, priority 2017, dated 2025).

This series deals with CT26 mouse colon carcinoma model. The experiment in a line: In vivo co-localisation of Cy7 labelled nCVTs, IVIS imaging. The method, then: The nCVTs labelled with cyanine 7 NHS Monoester dye (Cy7) of Example 7 were compared with similarly labeled liposomes of the same lipid constitution (Liposomes produced for loading and in vitro testing were prepared with 1.95 mg of DPPC and 0.05 mg of Cholesterol. Liposomes produced for in vivo experiments were PEGylated, and prepared with 2.61 mg of DPPC, 1.61 mg of DSPE-PEG2000 and 0.78 mg of cholesterol.) The samples were then injected through the tail vein of a CT26 mouse colon carcinoma model, with tumour formation subcutaneously on the back of the mouse.
Three groups of mice were injected with Cy7 labelled nCVTs, Cy7 labelled liposomes and free dye. After 24 hours, the mice were imaged using the In Vivo Imaging Systems (IVIS) spectrum.

As for cyanine 7 NHS Monoester dye [free dye], the “Relative fluorescence intensity of excised liver and kidney” value (24 hours, liposomes are PEGylated) is “reduced fluorescence intensity”. Also, for the setting “tail vein injection, after 24 hours, liposomes are PEGylated”, the “Accumulation of fluorescence at the tumour site (IVIS, whole mice)” value was “does not accumulate in the tumours”. For the same substance, the Clearance entry (tail vein injection, mouse) is “rapidly cleared”. Moreover, the “Elimination from the mouse” value (within 24 hours) is given as “largely eliminated”.
